Results: ChEMBL document CHEMBL1135808, “A new type of mixed anhydride and its applications to the synthesis of 7-substituted 8-chloro-5,5-dioxoimidazo[1,2-b][1,4,2]benzodithiazines with in vitro antitumor activity” (2002)

Experiments:
Format in all cases: functional
HOP-92 = experiment: Log of molar concentration leading to 50% cell death against non-small-cell lung cancer HOP-92 cell line was reported; conditions: Homo sapiens, read-out: Log LC50 (the source's name) (converted)
HT-29 = experiment: Log of molar concentration leading to 50% cell death against colon cancer HT-29 cell line was reported; conditions: Homo sapiens, read-out: Log LC50 (the source's name) (converted)
NCI/ADR-RES = experiment: Log of molar concentration leading to 50% cell death against breast cancer NCI/ADR-RES cell line was reported; conditions: Homo sapiens, read-out: Log LC50 (the source's name) (converted)
Hs-578T = experiment: In vitro total growth inhibition against breast cancer HS 578T cell lines was reported.; conditions: Homo sapiens, read-out: Log TGI (converted)

SMILES | CC50 (HOP-92) | CC50 (HT-29) | CC50 (NCI/ADR-RES) | TGI (Hs-578T)
O=C(Nc1cccc2nsnc12)c1cc2c(cc1Cl)Sc1nccn1S2(=O)=O | 95.5 µM | 28.8 µM | 83.2 µM | 
O=C(Nc1nccs1)c1cc2c(cc1Cl)Sc1nccn1S2(=O)=O |  |  |  | 91.2 µM
